Test results taken from ChEMBL document CHEMBL4257449, “New N-(2-phenyl-4-oxo-1,3-thiazolidin-3-yl)-1,2-benzothiazole-3-carboxamides and acetamides as antimicrobial agents” (2017).
Converted amounts (≈) assume the structure as drawn.

Tested on: Pseudomonas aeruginosa
Test: Bactericidal activity against Pseudomonas aeruginosa ATCC 27853 incubated for 24 hrs followed by serial sub-cultivation and measured after 24 hrs by microdilution method
Type: functional
Settings: not given

SMILES	MBC99.5 [×10⁻² umol/ml]
O=C(Cc1nsc2ccccc12)NN1C(=O)CSC1c1cccc(Cl)c1 (configuration not stated)	37.2

Tested on: Aspergillus versicolor
Test: Antifungal activity against Aspergillus versicolor ATCC 11730 after 72 hrs by serial dilution method
Type: functional
Settings: ATCC 11730, 72 h

MIC [µM]	SMILES
100 (≈ 40.4 µg/mL)	O=C(Cc1nsc2ccccc12)NN1C(=O)CSC1c1cccc(Cl)c1 (configuration not stated)

Tested on: Aspergillus niger
Test: Fungicidal activity against Aspergillus niger ATCC 6275 incubated for 72 hrs followed by serial sub-cultivation for 72 hrs and measured after 72 hrs by serial dilution method
Type: functional
Settings: not given

SMILES	MFC99.5 [×10⁻² umol/ml]
O=C(Cc1nsc2ccccc12)NN1C(=O)CSC1c1cccc(Cl)c1 (configuration not stated)	19.2

Tested on: Aspergillus fumigatus
Test: Antifungal activity against Aspergillus fumigatus after 72 hrs by serial dilution method
Type: functional
Settings: not given

MIC [µM]	SMILES
100 (≈ 40.4 µg/mL)	O=C(Cc1nsc2ccccc12)NN1C(=O)CSC1c1cccc(Cl)c1 (configuration not stated)

Tested on: Salmonella typhimurium
Test: Antibacterial activity against Salmonella typhimurium ATCC 13311 after 24 hrs by microdilution method
Type: functional, Salmonella enterica subsp. enterica serovar Typhimurium
Settings: Salmonella enterica, ATCC 13311, 24 h

MIC [µM]	SMILES
100 (≈ 40.4 µg/mL)	O=C(Cc1nsc2ccccc12)NN1C(=O)CSC1c1cccc(Cl)c1 (configuration not stated)

Tested on: Candida albicans
Test: Antifungal activity against Candida albicans after 72 hrs by serial dilution method
Type: functional
Settings: not given

MIC [µM]	SMILES
100 (≈ 40.4 µg/mL)	O=C(Cc1nsc2ccccc12)NN1C(=O)CSC1c1cccc(Cl)c1 (configuration not stated)

Tested on: Talaromyces funiculosus
Test: Fungicidal activity against Penicillium funiculosum ATCC 36839 incubated for 72 hrs followed by serial sub-cultivation for 72 hrs and measured after 72 hrs by serial dilution method
Type: functional
Settings: not given

SMILES	MFC99.5 [×10⁻² umol/ml]
O=C(Cc1nsc2ccccc12)NN1C(=O)CSC1c1cccc(Cl)c1 (configuration not stated)	19.8

Tested on: Enterobacter cloacae
Test: Bactericidal activity against Enterobacter cloacae incubated for 24 hrs followed by serial sub-cultivation and measured after 24 hrs by microdilution method
Type: functional
Settings: not given

SMILES	MBC99.5 [×10⁻² umol/ml]
O=C(Cc1nsc2ccccc12)NN1C(=O)CSC1c1cccc(Cl)c1 (configuration not stated)	37.2

Tested on: Staphylococcus aureus
Test: Antibacterial activity against Staphylococcus aureus ATCC 6538 after 24 hrs by microdilution method
Type: functional
Settings: ATCC 6538, 24 h

MIC [µM]	SMILES
100 (≈ 40.4 µg/mL)	O=C(Cc1nsc2ccccc12)NN1C(=O)CSC1c1cccc(Cl)c1 (configuration not stated)

Tested on: Penicillium ochrochloron
Test: Fungicidal activity against Penicillium ochrochloron ATCC 9112 incubated for 72 hrs followed by serial sub-cultivation for 72 hrs and measured after 72 hrs by serial dilution method
Type: functional
Settings: not given

SMILES	MFC99.5 [×10⁻² umol/ml]
O=C(Cc1nsc2ccccc12)NN1C(=O)CSC1c1cccc(Cl)c1 (configuration not stated)	10

Tested on: Aspergillus ochraceus
Test: Antifungal activity against Aspergillus ochraceus ATCC 12066 after 72 hrs by serial dilution method
Type: functional
Settings: ATCC 12066, 72 h

MIC [µM]	SMILES
74 (≈ 29.9 µg/mL)	O=C(Cc1nsc2ccccc12)NN1C(=O)CSC1c1cccc(Cl)c1 (configuration not stated)

Tested on: Salmonella typhimurium
Test: Bactericidal activity against Salmonella typhimurium ATCC 13311 incubated for 24 hrs followed by serial sub-cultivation and measured after 24 hrs by microdilution method
Type: functional, Salmonella enterica subsp. enterica serovar Typhimurium
Settings: not given

SMILES	MBC99.5 [×10⁻² umol/ml]
O=C(Cc1nsc2ccccc12)NN1C(=O)CSC1c1cccc(Cl)c1 (configuration not stated)	37.2

Tested on: Escherichia coli
Test: Antibacterial activity against Escherichia coli ATCC 35210 after 24 hrs by microdilution method
Type: functional
Settings: ATCC 35210, 24 h

MIC [µM]	SMILES
198 (≈ 80 µg/mL)	O=C(Cc1nsc2ccccc12)NN1C(=O)CSC1c1cccc(Cl)c1 (configuration not stated)

Tested on: Listeria monocytogenes
Test: Bactericidal activity against Listeria monocytogenes NCTC 7973 incubated for 24 hrs followed by serial sub-cultivation and measured after 24 hrs by microdilution method
Type: functional
Settings: not given

SMILES	MBC99.5 [×10⁻² umol/ml]
O=C(Cc1nsc2ccccc12)NN1C(=O)CSC1c1cccc(Cl)c1 (configuration not stated)	37.2

Tested on: Pseudomonas aeruginosa
Test: Antibacterial activity against Pseudomonas aeruginosa ATCC 27853 after 24 hrs by microdilution method
Type: functional
Settings: ATCC 27853, 24 h

MIC [µM]	SMILES
198 (≈ 80 µg/mL)	O=C(Cc1nsc2ccccc12)NN1C(=O)CSC1c1cccc(Cl)c1 (configuration not stated)

Tested on: Enterobacter cloacae
Test: Antibacterial activity against Enterobacter cloacae after 24 hrs by microdilution method
Type: functional
Settings: not given

MIC [µM]	SMILES
198 (≈ 80 µg/mL)	O=C(Cc1nsc2ccccc12)NN1C(=O)CSC1c1cccc(Cl)c1 (configuration not stated)

Tested on: Penicillium ochrochloron
Test: Antifungal activity against Penicillium ochrochloron ATCC 9112 after 72 hrs by serial dilution method
Type: functional
Settings: ATCC 9112, 72 h

MIC [µM]	SMILES
74 (≈ 29.9 µg/mL)	O=C(Cc1nsc2ccccc12)NN1C(=O)CSC1c1cccc(Cl)c1 (configuration not stated)

Tested on: Candida albicans
Test: Fungicidal activity against Candida albicans incubated for 72 hrs followed by serial sub-cultivation for 72 hrs and measured after 72 hrs by serial dilution method
Type: functional
Settings: not given

SMILES	MFC99.5 [×10⁻² umol/ml]
O=C(Cc1nsc2ccccc12)NN1C(=O)CSC1c1cccc(Cl)c1 (configuration not stated)	19.8

Tested on: Trichoderma viride
Test: Fungicidal activity against Trichoderma viride IAM 5061 incubated for 72 hrs followed by serial sub-cultivation for 72 hrs and measured after 72 hrs by serial dilution method
Type: functional
Settings: not given

SMILES	MFC99.5 [×10⁻² umol/ml]
O=C(Cc1nsc2ccccc12)NN1C(=O)CSC1c1cccc(Cl)c1 (configuration not stated)	10

Tested on: Aspergillus versicolor
Test: Fungicidal activity against Aspergillus versicolor ATCC 11730 incubated for 72 hrs followed by serial sub-cultivation for 72 hrs and measured after 72 hrs by serial dilution method
Type: functional
Settings: not given

SMILES	MFC99.5 [×10⁻² umol/ml]
O=C(Cc1nsc2ccccc12)NN1C(=O)CSC1c1cccc(Cl)c1 (configuration not stated)	19.2

Tested on: Talaromyces funiculosus
Test: Antifungal activity against Penicillium funiculosum ATCC 36839 after 72 hrs by serial dilution method
Type: functional
Settings: ATCC 36839, 72 h

MIC [µM]	SMILES
100 (≈ 40.4 µg/mL)	O=C(Cc1nsc2ccccc12)NN1C(=O)CSC1c1cccc(Cl)c1 (configuration not stated)

Tested on: Micrococcus flavus
Test: Bactericidal activity against Micrococcus flavus ATCC 10240 incubated for 24 hrs followed by serial sub-cultivation and measured after 24 hrs by microdilution method
Type: functional
Settings: not given

SMILES	MBC99.5 [×10⁻² umol/ml]
O=C(Cc1nsc2ccccc12)NN1C(=O)CSC1c1cccc(Cl)c1 (configuration not stated)	37.2

Tested on: Aspergillus ochraceus
Test: Fungicidal activity against Aspergillus ochraceus ATCC 12066 incubated for 72 hrs followed by serial sub-cultivation for 72 hrs and measured after 72 hrs by serial dilution method
Type: functional
Settings: not given

SMILES	MFC99.5 [×10⁻² umol/ml]
O=C(Cc1nsc2ccccc12)NN1C(=O)CSC1c1cccc(Cl)c1 (configuration not stated)	10

Tested on: Staphylococcus aureus
Test: Bactericidal activity against Staphylococcus aureus ATCC 6538 incubated for 24 hrs followed by serial sub-cultivation and measured after 24 hrs by microdilution method
Type: functional
Settings: not given

SMILES	MBC99.5 [×10⁻² umol/ml]
O=C(Cc1nsc2ccccc12)NN1C(=O)CSC1c1cccc(Cl)c1 (configuration not stated)	37.2

Tested on: Aspergillus fumigatus
Test: Fungicidal activity against Aspergillus fumigatus incubated for 72 hrs followed by serial sub-cultivation for 72 hrs and measured after 72 hrs by serial dilution method
Type: functional
Settings: not given

SMILES	MFC99.5 [×10⁻² umol/ml]
O=C(Cc1nsc2ccccc12)NN1C(=O)CSC1c1cccc(Cl)c1 (configuration not stated)	37.2

Tested on: Listeria monocytogenes
Test: Antibacterial activity against Listeria monocytogenes NCTC 7973 after 24 hrs by microdilution method
Type: functional
Settings: NCTC 7973, 24 h

MIC [µM]	SMILES
198 (≈ 80 µg/mL)	O=C(Cc1nsc2ccccc12)NN1C(=O)CSC1c1cccc(Cl)c1 (configuration not stated)

Tested on: Micrococcus flavus
Test: Antibacterial activity against Micrococcus flavus ATCC 10240 after 24 hrs by microdilution method
Type: functional
Settings: ATCC 10240, 24 h

MIC [µM]	SMILES
198 (≈ 80 µg/mL)	O=C(Cc1nsc2ccccc12)NN1C(=O)CSC1c1cccc(Cl)c1 (configuration not stated)

Tested on: Bacillus cereus
Test: Antibacterial activity against Bacillus cereus after 24 hrs by microdilution method
Type: functional
Settings: not given

MIC [µM]	SMILES
198 (≈ 80 µg/mL)	O=C(Cc1nsc2ccccc12)NN1C(=O)CSC1c1cccc(Cl)c1 (configuration not stated)

Tested on: Aspergillus niger
Test: Antifungal activity against Aspergillus niger ATCC 6275 after 72 hrs by serial dilution method
Type: functional
Settings: ATCC 6275, 72 h

MIC [µM]	SMILES
100 (≈ 40.4 µg/mL)	O=C(Cc1nsc2ccccc12)NN1C(=O)CSC1c1cccc(Cl)c1 (configuration not stated)

Tested on: Bacillus cereus
Test: Bactericidal activity against Bacillus cereus incubated for 24 hrs followed by serial sub-cultivation and measured after 24 hrs by microdilution method
Type: functional
Settings: not given

SMILES	MBC99.5 [×10⁻² umol/ml]
O=C(Cc1nsc2ccccc12)NN1C(=O)CSC1c1cccc(Cl)c1 (configuration not stated)	37.2

Tested on: Escherichia coli
Test: Bactericidal activity against Escherichia coli ATCC 35210 incubated for 24 hrs followed by serial sub-cultivation and measured after 24 hrs by microdilution method
Type: functional
Settings: not given

SMILES	MBC99.5 [×10⁻² umol/ml]
O=C(Cc1nsc2ccccc12)NN1C(=O)CSC1c1cccc(Cl)c1 (configuration not stated)	37.2

Tested on: Trichoderma viride
Test: Antifungal activity against Trichoderma viride IAM 5061 after 72 hrs by serial dilution method
Type: functional
Settings: IAM 5061, 72 h

MIC [µM]	SMILES
50 (≈ 20.2 µg/mL)	O=C(Cc1nsc2ccccc12)NN1C(=O)CSC1c1cccc(Cl)c1 (configuration not stated)
